In patent US9211252B2, “Increased drug loading capacity of polymeric material” (Medtronic, Inc., priority 2007, dated 2015):
Entries after “also recorded” stand apart in the source; their conditions may differ. Read-outs that look alike come from different tables or passages of the source.

Tests used:
[1] = Solubility of drug in the loading solution; format: physicochemical; settings: methanol/butyl acetate loading solution, extra 5 mL methanol added
[2] = for increase in drug loading, pre-extracted relative to non-extracted silicone discs: 2 hour plus 24 hour extracted; for average drug loaded into silicone discs: 24 hr loading, HPLC of 25 mL extract
Method: One sheet was removed after 2 hours; the other was removed after 24. The sheets were allowed to dry for 24 hours.
Nine 1¼ inch discs were punched from each sheet of silicone. The discs (27) were separated into 9 jars (3 per jar). Each jar contained a drug loading solution. Three jars contained clonidine, three contained dexamethasone and three contained sulindac.
After stirring 24 hrs in solution, all the samples were removed, rinsed twice for approximately 10 seconds in a sufficient volume of methanol and allowed to dry overnight in open air on a drying rack. The samples were then stored until extraction in jars in a nitrogen purged foil bag.
Each sample was cut in half, and the half sample was weighed. Initially only the clonidine and sulindac samples were analyzed.
All samples were extracted in THF/ethanol 4:1 (15 mL) for 30 min; then re-extracted in THF/ethanol 4:1 (10 mL) for 20 min. The first and second extracts were combined in a volumetric flask and any additional volume was added to make exactly 25 mL of solution. These samples were stored in at 4° C. until analysis.
HPLC Analysis was performed using an Agilent 1100 stack. For dexamethasone, isocratic separation using acetonytrile:water (45:55) was performed. A Zorbax SB-Phenyl, 5 μm, 4.6×150 mm, column (Agilent Technologies, Inc.) was used at a column temperature of 30° C. The flow rate was 10 mL/min, with a run time of 15 minutes. Dexamethasone was detected by UV at 245 nm.
For sulindac, isocratic separation using 0.1% phosphoric acid in acetonitrile:water (38:62) was performed. A PRONTOSIL 120-5-C18-ace-EPS, 5 μm, 4.6×150 mm, column was used at a column temperature of 37° C. The autosampler temperature was 15° C. The flow rate was 1.0 mL/min, with a run time of 35 min. Sulindac was detected by UV at 285 nm. Injection volumes were 10-50 μL.
The autosample temperature was ambient temperature. Isocratic separation using a mobile phase A (MPA):mobile phase B (MPB) ratio of 52:48 was employed. MPA consisted of 2.2 gm 1-octanesulfonic acid, sodium salt for each liter of nanopure water. MPB was HPLC Grade Methanol. The flow rate was 1 mL/min, with a run time of 15 minutes. […] The injection volume was 10 μL

[3] = Solvent swelling of silicone boots; format: physicochemical; settings: silicone boots placed in solvent for 2 hours; solvent ratios by volume
Method: The effect of various solvents to swell (as determined by % weight increase) silicone boots was determined. Silicone boots were weighed, placed in a solvent for 2 hours, and weighed again.
The solvent ratios in Table 1 are by volume. The ability to swell silicone by 30% or more is believed to be suitable for increasing the loading capacity of silicone. The ability to swell silicone by 50% or more is believed to be more suitable for increasing the loading capacity of silicone.

[4] = Loading of minocycline and rifampin into pre-extracted and non-extracted silicone boots; format: physicochemical; settings: for drug concentration in polymer: loading 1 hour in butyl acetate:methanol 85:15
Method: Molded, cured silicone (Dow-Q7 4850) boots designed to fit snuggly around Restore® implantable neurostimulators (Medtroinc, Inc.) were placed in a concentrated drug loading solution containing rifampin (30 mg/ml) and minocycline (15 mg/ml) in butyl acetate:methanol (85:15, by volume). The polymer was allowed to swell in this solution for one hour, rinsed and then dried overnight.
The efficiency of various solvents to extract material from cured silicone was tracked by determining the weight loss post-extraction. […] It was initially assumed that subjecting the polymer to drug loading should fulfill the same function as pre-extracting the material prior to drug loading.
One thought was that the existence of extractables in the loading solution might increase the solubility of the drugs in solution compared to solubility in the silicone, thus lowering the partitioning of drug into the silicone. Eight non-extracted silicone boots and 10 pre-extracted boots were drug loaded in separate loading solutions. Two additional pre-extracted silicone boots were then loaded in the formulation used to load the non-extracted boots. According to the hypothesis, the loading solution used for the non-extracted boots would theoretically contain higher levels of silicone extractables, and result in lower loading of the pre-extracted boots.

[5] = not pre-extracted with butyl acetate
[6] = pre-extracted with butyl acetate for 2 hours
[7] = pre-extracted with butyl acetate for 24 hours

SMILES: C[C@@H]1C[C@H]2[C@@H]3CCC4=CC(=O)C=C[C@]4(C)[C@@]3(F)[C@@H](O)C[C@]2(C)[C@@]1(O)C(=O)CO [dexamethasone]
- solubility in loading solution [1]: substantial insolubility; also recorded: did not seem to dissolve well

SMILES: Clc1cccc(Cl)c1N=C1NCCN1 [clonidine]
- increase in drug loading, pre-extracted relative to non-extracted silicone discs [2]: ~6%
- average drug loaded into silicone discs [2, 5]: 19.41 ± 0.20 µg/mL
- average drug loaded into silicone discs [2, 6]: 20.59 ± 0.20 µg/mL
- average drug loaded into silicone discs [2, 7]: 20.49 ± 0.22 µg/mL

SMILES: Cc1ccccc1 [Toluene]
- % Weight Increase [3]: 85%

SMILES: ClC(Cl)Cl [Chloroform]
- % Weight Increase [3]: 166%

SMILES: CO[C@H]1/C=C/O[C@@]2(C)Oc3c(C)c(O)c4c(O)c(c(/C=N/N5CCN(C)CC5)c(O)c4c3C2=O)NC(=O)/C(C)=C\C=C\[C@H](C)[C@H](O)[C@@H](C)[C@@H](O)[C@@H](C)[C@H](OC(C)=O)[C@@H]1C [rifampin]
- drug concentration in polymer ([4]; non-extracted silicone boots): 2.61 mg/g
- drug concentration in polymer ([4]; silicone boots pre-extracted with butyl acetate): 3.28 mg/g
- increase in drug concentration, pre-extracted vs non-extracted ([4]; silicone boots, same lot): 25.7%

SMILES: C1CCCCC1 [Cyclohexane]
- % Weight Increase [3]: 85%

SMILES: CC1=C(CC(=O)O)c2cc(F)ccc2/C1=C\c1ccc([S+](C)[O-])cc1 (stereo not drawn) [sulindac]
- increase in drug loading, pre-extracted relative to non-extracted silicone discs [2]: ~19%
- average drug loaded into silicone discs [2, 5]: 1.56 ± 0.03 µg/mL
- average drug loaded into silicone discs [2, 6]: 1.86 ± 0.06 µg/mL
- average drug loaded into silicone discs [2, 7]: 1.88 ± 0.11 µg/mL

SMILES: CC(C)O [Isopropyl alcohol]
- % Weight Increase [3]: 13%

SMILES: CC(C)=O [Acetone]
- % Weight Increase [3]: 15%

SMILES: CCOC(C)=O [Ethyl acetate]
- % Weight Increase [3]: 54%

SMILES: C1CCOC1 [THF]
- % Weight Increase [3]: 105%

SMILES: CCCCOC(C)=O [Butyl Acetate]
- % Weight Increase [3]: 73%

SMILES: C1CCCC1 [Cyclopentane]
- % Weight Increase [3]: 62%
